In US5070210A, “Novel ketenimines as intermediates for insecticides” (ICI Americas Inc., priority 1990, dated 1991):

Columns and labels:
Format in all cases: in vivo
[1] = tested on: Aster Leafhopper [Macrosteles fascifrens (Stal)]; test: Aster leafhopper insecticidal test; settings: adults/nymphs, percent in solution; 48 hours
In short: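 Three ~10 cm oat seedlings per cup were dipped 2-3 seconds in 50-50 acetone-water compound solutions, dried, and caged with ten adult/nymph leafhoppers. Mortality was counted after 48 hours at concentrations from 0.05% downward. LC50, as percent compound in solution, came from dosage-mortality curves.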

[2] = tested on: Maize weevil [Sitophilus Zeamais (Motschulsky)]; test: Maize weevil insecticidal test; settings: adult weevils, percent in solution; 48 hours
In short: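 LC50, in percent of compound in solution, was derived from dosage-mortality curves after 48 h at about 25 °C. Ten adult weevils per container fed on four corn seeds briefly immersed in acetone:water (50:50) solutions of up to 0.01% and dried.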

[3] = tested on: Tobacco Budworm [Heliothis virescens (Fabricius)] larvae; test: Tobacco budworm contact test; settings: second-instar larvae, percent in solution, 5 days
In short: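 Cotton cotyledons dipped 2–3 s in compound in 50-50 acetone-water, dried, then infested with 5 second-instar larvae and held 5 days at high humidity. Mortality scored; LC50 from dosage-mortality curves, expressed as percent compound in solution, concentrations from 0.1% downward.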

[4] = tested on: Beet Armyworm (Spodoptera exigua); test: Beet armyworm insecticidal test; settings: second-instar larvae, percent in solution; five days
Method: The compounds in Tables 1 and 2 above were tested for insecticidal activity using the following testing procedures. LC50 values, based on the results of these tests and calculated according to dosage-mortality curves, are expressed in Table 3.
Beet Armyworm (Spodoptera exigua):
Test compounds were diluted in a 50-50 acetone-water solution. Young leaves of sugar beets (Beta vulgaris) were immersed in the test solutions for 2-3 seconds and placed on a wire screen to dry. The dried leaves were placed in petri dishes containing a moistened filter paper and infested with five second-instar beet armyworm larvae. The dishes were placed in a high humidity chamber. Mortality of the larvae was recorded five days later. Test concentrations ranged from 0.1% downward. The LC-50 values are expressed below in Table 3 under the heading "BAW" in terms of percent of the test compound in solution.

[5] = tested on: Housefly [Musca domestica]; test: Housefly insecticidal test; settings: μg per 25 female flies; mortality after 48 hours
In short: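 Acetone solutions (with 0.01% peanut oil) dried onto dish bottoms, then 25 female flies, 1-2 days old, caged over the residue with sugar water. Mortality scored at 48 hours; LC50 from dosage-mortality curves, in μg per 25 female flies, top level 100 μg.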

[6] = tested on: Cabbage Looper [Trichoplusia ni (Hubner)]; test: Cabbage looper insecticidal test; settings: second-instar larvae, percent in solution; 3-5 days
In short: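 LC50 values, given as percent test compound in solution, were calculated from dosage-mortality curves. Squash cotyledons were immersed 2-3 s in acetone-water (50-50) dilutions starting at 0.1%, dried on a screen, then infested with five second-instar larvae. Mortality was read 3-5 days on.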

[7] = tested on: Tobacco Budworm [Heliothis virescens (Fabricius)] eggs; test: Tobacco budworm egg test; settings: 2-day old eggs, percent in solution
In short: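 2-day eggs on paper towel, acetone dip, 0.1% and below; petri dish with larval diet, 78° F. Mortality read after control hatch and larval feeding. LC50 = % compound in solution, from dose-mortality curve.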

Row | Structure (SMILES) | LC50, LH [1] | LC50, MW [2] | LC50, TBW, C (TBW-C) [3] | LC50, BAW [4] | LC50, HF [5] | LC50, CL [6] | LC50, TBW, E (TBW-E) [7]
1 | Clc1cccc(N=C(OCc2cccc(Oc3ccccc3)c2)C(Cl)Cl)c1 [Compound 1] | > 0.05% | > 0.01% | 0.06% | 0.009% | 4.8 µg | 0.005% | 0.05%
2 | CC(Cl)(Cl)C(=Nc1ccc(Cl)cc1)OCc1cccc(Oc2ccccc2)c1 [Compound 3] | > 0.05% | > 0.01% | 0.009% | 0.015% | 50 µg | 0.012% | > 0.1%
3 | CC(C)C(=Nc1ccc(Cl)c(Cl)c1)OCc1cccc(Oc2ccccc2)c1 [Compound 9] | 0.0003% | > 0.01% | 0.0008% | 0.0005% | 14 µg | 0.001% | 0.02%
4 | Clc1ccc(N=C(OCc2cccc(Oc3ccccc3)c2)C(Cl)Cl)cc1 [Compound 29] | 0.003% | > 0.01% | 0.001% | 0.003% | 5 µg | 0.002% | 0.01%
5 | ClCC(=Nc1ccc(Cl)cc1)OCc1cccc(Oc2ccccc2)c1 [Compound 31] | > 0.05% | > 0.01% | 0.01% | 0.08% | > 100 µg | 0.05% | > 0.1%
6 | Clc1ccc(N=C(OCc2cccc(Oc3ccccc3)c2)C2CC2)cc1 [Compound 32] | > 0.05% | > 0.01% | 0.006% | 0.03% | 37 µg | 0.003% | 0.1%
7 | CC(Cl)C(=Nc1ccc(Cl)cc1)OCc1cccc(Oc2ccccc2)c1 (stereo not drawn) [Compound 33] | > 0.05% | > 0.01% | 0.0025% | 0.02% | 17 µg | 0.01% | > 0.1%
8 | CC(=Nc1ccccc1)OCc1cccc(Oc2ccccc2)c1 [Compound 42] | > 0.05% | > 0.01% | > 0.1% | > 0.1% | 45 µg | > 0.1% | > 0.1%
9 | Fc1ccc(N=C(OCc2cccc(Oc3ccccc3)c2)C2CC2)cc1 [Compound 45] | > 0.05% | – | 0.01% | 0.1% | 30 µg | 0.03% | 0.08%
10 | CC(C)C(=Nc1cccc(F)c1)OCc1cccc(Oc2ccccc2)c1 [Compound 47] | 0.0003% | – | 0.002% | 0.002% | 10 µg | 0.002% | 0.06%
11 | CC(C)C(=Nc1ccc(F)cc1F)OCc1cccc(Oc2ccccc2)c1 [Compound 52] | 0.001% | – | 0.004% | 0.01% | 8 µg | 0.0025% | > 0.05%
12 | CC(C)C(=Nc1ccc(F)c(F)c1)OCc1cccc(Oc2ccccc2)c1 [Compound 54] | 0.00015% | – | 0.001% | 0.004% | 3.5 µg | 0.0003% | 0.017%
13 | FC(F)(F)c1ccc(N=C(OCc2cccc(Oc3ccccc3)c2)C(Cl)Cl)cc1 [Compound 61] | > 0.05% | > 0.01% | 0.03% | 0.002% | 29 µg | 0.001% | 0.03%
14 | FC(F)(F)c1ccc(N=C(OCc2cccc(Oc3ccccc3)c2)C2CC2)cc1 [Compound 62] | > 0.05% | > 0.01% | 0.0015% | 0.02% | 20 µg | 0.005% | 0.025%
15 | FC(F)(F)Oc1ccc(N=C(OCc2cccc(Oc3ccccc3)c2)C(Cl)Cl)cc1 [Compound 64] | > 0.05% | > 0.01% | 0.1% | 0.0025% | 11 µg | 0.0025% | 0.03%
16 | FC(F)(F)c1ccc(N=C(OCc2cccc(Oc3ccccc3)c2)C2CC2)c(Cl)c1 [Compound 65] | > 0.05% | – | 0.1% | > 0.1% | > 100 µg | < 0.01% | > 0.1%
17 | CC(C)C(=Nc1ccc(Cl)c(C(F)(F)F)c1)OCc1cccc(Oc2ccccc2)c1 [Compound 71] | 0.002% | – | 0.0008% | 0.0004% | 50 µg | 0.0006% | 0.065%
18 | CC(C)C(=Nc1cc(F)cc(C(F)(F)F)c1)OCc1cccc(Oc2ccccc2)c1 [Compound 77] | 0.0002% | > 0.01% | 0.0004% | 0.004% | 10 µg | 0.0005% | 0.03%
19 | CC(C)C(=Nc1cccc(C(F)(F)F)c1)OCc1ccc(F)c(Oc2ccccc2)c1 [Compound 80] | 0.0001% | – | 0.00075% | 0.0018% | 4.5 µg | 0.0003% | 0.005%
20 | CC(C)C(=Nc1ccc(C(C)C)cc1)OCc1cccc(Oc2ccccc2)c1 [Compound 144] | 0.0006% | > 0.01% | 0.006% | > 0.01% | 100 µg | 0.002% | 0.05%
21 | CC(C)C(=Nc1ccc2c(c1)OCO2)OCc1cccc(Oc2ccc(F)cc2)c1 [Compound 176] | > 0.05% | 0.009% | 0.002% | 0.0035% | 1.8 µg | 0.0005% | 0.05%
22 | CC(C)C(=Nc1cccc(C(F)(F)F)c1)OCc1ccc(F)c(Oc2ccc(F)cc2)c1 [Compound 268] | 0.0005% | > 0.01% | 0.0005% | 0.001% | 4 µg | 0.000025% | 0.023%
23 | CC(C)C(=Nc1cccc(Cl)c1)OCc1cccc(Oc2ccc(Cl)cc2)c1 [Compound 270] | 0.003% | > 0.01% | > 0.0015% | 0.005% | 12 µg | 0.00025% | > 0.01%
24 | CC(C)C(=Nc1cccc(I)c1)OCc1ccc(F)c(Oc2ccc(F)cc2)c1 [Compound 279] | 0.0003% | > 0.01% | 0.007% | 0.0025% | 4 µg | 0.00008% | 0.016%
25 | CC(C)C(=Nc1ccc2c(c1)OC(F)(F)O2)OCc1ccc(F)c(Oc2ccc(F)cc2)c1 [Compound 284] | 0.0003% | 0.0075% | 0.0002% | 0.0025% | 39 µg | 0.00005% | –
26 | CC(C)C(=Nc1ccc(F)c(Cl)c1)OCc1ccc(F)c(Oc2ccc(F)c(F)c2)c1 [Compound 346] | 0.05% | > 0.01% | 0.0002% | > 0.1% | 7.2 µg | > 0.1% | > 0.1%
